{
  "source": "patent US8278349B2",
  "about": "“Cancer treatment using FTS and 2-deoxyglucose” (Ramot at Tel-Aviv University Ltd., priority 2005, dated 2012)",
  "key": {"[1]": {"system": "primary pancreatic tumor cell line pp109", "assay": "Cell number from phase contrast images, pp109", "assay_type": "cell-based", "description": "(§1) All materials for cell culture and determination of cell growth and death were detailed in earlier publications. [Blum, R., Jacob-Hirsch, J., Amariglio, N., Rechavi, G. and Kloog, Y., Cancer Res 65:999-1006 (2005); Yaari, S., Jacob-Hirsch, J., Amariglio, N., Haklai, R., Rechavi, G. and Kloog, Y., Clin Cancer Res 11:4321-30 (2005)]. FTS was provided by Concordia Pharmaceuticals, Inc. 2DG was purchased from Sigma (cat #D3179). Cells were maintained in DMEM/10% FCS at a constant temperature of 37° C. in a humidified atmosphere of 95% air/5% CO2. Cells were plated in 1 ml DMEM/5% FCS at a density of 10,000 in 24 wells plates, and treated 24 hours (h) later with 50 μM or 75 μM FTS or with the vehicle (0.1% Me2SO). […] Following incubation for 24 or 48 h, as specified in each experiment, the cells were stained with Hoechst 33258 (1 μg/mL) to determine the extent of cell death; the cells were incubated with the reagent for 5 min and stained nuclei were visualized by a fluorescence microscope. […]\n(§2) All experiments were performed and repeated at least four times. Data were collected by imaging each well then analyzed as follows: the total number of cells was calculated of the phase contrast images and the number of dead cells was calculated of the fluorescence images. The percentage of Hoechst stained dead cells ([dead cells/total number of cells]×100) was calculated and presented as means±SD."}, "[2]": {"system": "human glioblastoma cell line U87", "assay": "Cell number from phase contrast images, U87", "assay_type": "cell-based", "details": "single or combined treatment", "description": "(§3) All materials for cell culture and determination of cell growth and death were detailed in earlier publications. [Blum, R., Jacob-[…]. and Kloog, Y., Cancer Res 65:999-1006 (2005); […]., Jacob-[…]. and Kloog, Y., Clin Cancer Res 11:4321-30 (2005)]. FTS was provided by Concordia Pharmaceuticals, Inc. 2DG was purchased from Sigma (cat #D3179). Cells were maintained in DMEM/10% FCS at a constant temperature of 37° C. in a humidified atmosphere of 95% air/5% CO2. Cells were plated in 1 ml DMEM/5% FCS at a density of 10,000 in 24 wells plates, and treated 24 hours (h) later with 50 μM or 75 μM FTS or with the vehicle (0.1% Me2SO). Forty-eight (48) h later the medium was replaced by a medium containing either 10 mM glucose or 5 mM glucose plus 5 mM 2DG. […] Following incubation for 24 or 48 h, as specified in each experiment, the cells were stained with Hoechst 33258 (1 μg/mL) to determine the extent of cell death; the cells were incubated with the reagent for 5 min and stained nuclei were visualized by a fluorescence microscope. […] Data were collected by imaging each well then analyzed as follows: the total number of cells was calculated of the phase contrast images and the number of dead cells was calculated of the fluorescence images. The percentage of Hoechst stained dead cells ([dead cells/total number of cells]×100) was calculated and presented as means±SD."}, "[3]": {"system": "human glioblastoma cell line U87", "assay": "Cell death by Hoechst 33258 staining, U87", "assay_type": "cell-based", "details": "single or combined treatment", "description": "as §3"}, "[4]": {"system": "pancreatic carcinoma cell line panc-1", "assay": "Cell number from phase contrast images, panc-1", "assay_type": "cell-based", "description": "as §1, §2"}, "[5]": {"system": "primary pancreatic tumor cell line pp 78", "assay": "Cell death by Hoechst 33258 staining, pp 78", "assay_type": "cell-based", "details": "single-drug or combined treatment", "description": "as §3"}, "[6]": {"system": "primary pancreatic tumor cell line pp161", "assay": "Cell death by Hoechst 33258 staining, pp161", "assay_type": "cell-based", "details": "single-drug or combined treatment", "description": "as §3"}, "[7]": {"system": "primary pancreatic tumor cell line pp 78", "assay": "Cell number from phase contrast images, pp 78", "assay_type": "cell-based", "description": "as §1, §2"}, "[8]": {"system": "primary pancreatic tumor cell line pp161", "assay": "Cell number from phase contrast images, pp161", "assay_type": "cell-based", "description": "as §1, §2"}, "[9]": {"system": "human glioblastoma cell line U373", "assay": "Cell death by Hoechst 33258 staining, U373", "assay_type": "cell-based", "details": "single or combined treatment", "description": "as §3"}, "[10]": {"system": "pancreatic carcinoma cell line panc-1", "assay": "Cell death by Hoechst 33258 staining, panc-1", "assay_type": "cell-based", "details": "for percentage of dead cells: panc-1", "description": "All materials for cell culture and determination of cell growth and death were detailed in earlier publications. [Blum, R., Jacob-[…]. and Kloog, Y., Cancer Res 65:999-1006 (2005); […]., Jacob-[…]. and Kloog, Y., Clin Cancer Res 11:4321-30 (2005)]. FTS was provided by Concordia Pharmaceuticals, Inc. 2DG was purchased from Sigma (cat #D3179). Cells were maintained in DMEM/10% FCS at a constant temperature of 37° C. in a humidified atmosphere of 95% air/5% CO2. Cells were plated in 1 ml DMEM/5% FCS at a density of 10,000 in 24 wells plates, and treated 24 hours (h) later with 50 μM or 75 μM FTS or with the vehicle (0.1% Me2SO). Forty-eight (48) h later the medium was replaced by a medium containing either 10 mM glucose or 5 mM glucose plus 5 mM 2DG. The FTS treated groups were replenished with the drug and the controls with 0.1% Me2SO. Following incubation for 24 or 48 h, as specified in each experiment, the cells were stained with Hoechst 33258 (1 μg/mL) to determine the extent of cell death; the cells were incubated with the reagent for 5 min and stained nuclei were visualized by a fluorescence microscope. Additionally, phase contrast images were taken. All experiments were performed and repeated at least four times. Data were collected by imaging each well then analyzed as follows: the total number of cells was calculated of the phase contrast images and the number of dead cells was calculated of the fluorescence images. The percentage of Hoechst stained dead cells ([dead cells/total number of cells]×100) was calculated and presented as means±SD."}, "[11]": {"system": "human glioblastoma cell line U373", "assay": "Cell number from phase contrast images, U373", "assay_type": "cell-based", "details": "single or combined treatment", "description": "as §3"}, "[12]": {"system": "primary pancreatic tumor cell line pp109", "assay": "Cell death by Hoechst 33258 staining, pp109", "assay_type": "cell-based", "details": "single-drug or combined treatment", "description": "as §3"}, "Mia Paca cells": {"system": "Mia Paca cells", "details": "cited from earlier work"}, "GBM cells": {"system": "GBM cells", "details": "reported (Blum 2005; Yaari 2005); cited from earlier work"}, "panc-1 cells": {"system": "panc-1 cells", "details": "cited from earlier work"}, "[13]": {"details": "previously shown (Kloog and Cox 2000)"}},
  "data": [
    {"compound": "OCC1OC(O)CC(O)C1O", "note": "[2DG, 2-deoxy-D-glucose, reference compound]", "values": [
      {"measurement": "decrease in cell number", "setting": "[1]; 2DG alone, compared with FTS", "value": "decrease in cell number, but to a lower extent"},
      {"measurement": "total cell number", "setting": "[2]", "value": "induced a decrease in total cell number"},
      {"measurement": "cell death", "setting": "[3]", "value": "no significant increase in cell death"},
      {"measurement": "decrease in cell number", "setting": "[4]; 2DG alone, compared with FTS", "value": "decrease in cell number, but to a lower extent"},
      {"measurement": "cell death above the levels observed in the controls", "setting": "[5]", "value": "did not cause a significant increase in death"},
      {"measurement": "cell death above the levels observed in the controls", "setting": "[6]", "value": "did not cause a significant increase in death"},
      {"measurement": "decrease in cell number", "setting": "[7]; 2DG alone, compared with FTS", "value": "decrease in cell number, but to a lower extent"},
      {"measurement": "decrease in cell number", "setting": "[8]; 2DG alone, compared with FTS", "value": "decrease in cell number, but to a lower extent"},
      {"measurement": "cell death", "setting": "[9]", "value": "no significant increase in cell death"},
      {"measurement": "cell survival", "setting": "[10]; 2DG (5 mM) combined with equimolar glucose, cell death similar to controls (3%)", "value": "did not affect cell survival"},
      {"measurement": "percentage of dead cells", "setting": "[10]; 2DG alone (5 mM glucose plus 5 mM 2DG)", "value": 3, "unit": "%"},
      {"measurement": "total cell number", "setting": "[11]", "value": "induced a decrease in total cell number"},
      {"measurement": "cell death above the levels observed in the controls", "setting": "[12]", "value": "induced death"}
    ]},
    {"compound": "CC(C)=CCC/C(C)=C/CC/C(C)=C/CSc1ccccc1C(=O)O", "note": "[FTS, farnesylthiosalicylic acid]", "values": [
      {"measurement": "decrease in the total number of cells", "setting": "[1]; 75 μM FTS alone", "value": "~2", "unit": "fold"},
      {"measurement": "cell death", "setting": "Mia Paca cells; FTS alone", "value": "did not induce death"},
      {"measurement": "anchorage-dependent and anchorage-independent growth", "setting": "Mia Paca cells; [13]", "value": "inhibit anchorage-dependent and anchorage-independent growth"},
      {"measurement": "total cell number", "setting": "[2]", "value": "induced a decrease in total cell number"},
      {"measurement": "cell death", "setting": "[3]", "value": "no significant increase in cell death"},
      {"measurement": "growth arrest and cell death", "setting": "GBM cells", "value": "induce both growth arrest and cell death"},
      {"measurement": "decrease in cell number", "setting": "[4]; 75 μM FTS alone", "value": "~2", "unit": "fold"},
      {"measurement": "cell death above the levels observed in the controls", "setting": "[5]", "value": "did not cause a significant increase in death"},
      {"measurement": "cell death above the levels observed in the controls", "setting": "[6]", "value": "did not cause a significant increase in death"},
      {"measurement": "decrease in the total number of cells", "setting": "[7]; 75 μM FTS alone", "value": "~2", "unit": "fold"},
      {"measurement": "decrease in the total number of cells", "setting": "[8]; 75 μM FTS alone", "value": "~2", "unit": "fold"},
      {"measurement": "cell death", "setting": "[9]", "value": "no significant increase in cell death"},
      {"measurement": "percentage of dead cells", "setting": "[10]; 50 μM FTS alone (10 mM glucose)", "value": 4, "unit": "%"},
      {"measurement": "percentage of dead cells", "setting": "[10]; 75 μM FTS alone (10 mM glucose)", "value": 7, "unit": "%"},
      {"measurement": "total cell number", "setting": "[11]", "value": "induced a decrease in total cell number"},
      {"measurement": "cell death above the levels observed in the controls", "setting": "[12]", "value": "induced death"},
      {"measurement": "cell death", "setting": "panc-1 cells; FTS alone", "value": "did not induce death"},
      {"measurement": "anchorage-dependent and anchorage-independent growth", "setting": "panc-1 cells; [13]", "value": "inhibit anchorage-dependent and anchorage-independent growth"}
    ]}
  ]
}
